Values after ≈ are worked out from the molar mass of the structure shown.
What was measured:
Toll-like receptor 9 = target: T1, Toll-like receptor 9 (Homo sapiens, UniProt Q9NR96); experiment: Antagonist activity at human TLR9 transfected in HEK293 cells after 6 hrs by NF-kappaB luciferase reporter assay; type: cell-based
T1 sequence (Q9NR96 whole entry): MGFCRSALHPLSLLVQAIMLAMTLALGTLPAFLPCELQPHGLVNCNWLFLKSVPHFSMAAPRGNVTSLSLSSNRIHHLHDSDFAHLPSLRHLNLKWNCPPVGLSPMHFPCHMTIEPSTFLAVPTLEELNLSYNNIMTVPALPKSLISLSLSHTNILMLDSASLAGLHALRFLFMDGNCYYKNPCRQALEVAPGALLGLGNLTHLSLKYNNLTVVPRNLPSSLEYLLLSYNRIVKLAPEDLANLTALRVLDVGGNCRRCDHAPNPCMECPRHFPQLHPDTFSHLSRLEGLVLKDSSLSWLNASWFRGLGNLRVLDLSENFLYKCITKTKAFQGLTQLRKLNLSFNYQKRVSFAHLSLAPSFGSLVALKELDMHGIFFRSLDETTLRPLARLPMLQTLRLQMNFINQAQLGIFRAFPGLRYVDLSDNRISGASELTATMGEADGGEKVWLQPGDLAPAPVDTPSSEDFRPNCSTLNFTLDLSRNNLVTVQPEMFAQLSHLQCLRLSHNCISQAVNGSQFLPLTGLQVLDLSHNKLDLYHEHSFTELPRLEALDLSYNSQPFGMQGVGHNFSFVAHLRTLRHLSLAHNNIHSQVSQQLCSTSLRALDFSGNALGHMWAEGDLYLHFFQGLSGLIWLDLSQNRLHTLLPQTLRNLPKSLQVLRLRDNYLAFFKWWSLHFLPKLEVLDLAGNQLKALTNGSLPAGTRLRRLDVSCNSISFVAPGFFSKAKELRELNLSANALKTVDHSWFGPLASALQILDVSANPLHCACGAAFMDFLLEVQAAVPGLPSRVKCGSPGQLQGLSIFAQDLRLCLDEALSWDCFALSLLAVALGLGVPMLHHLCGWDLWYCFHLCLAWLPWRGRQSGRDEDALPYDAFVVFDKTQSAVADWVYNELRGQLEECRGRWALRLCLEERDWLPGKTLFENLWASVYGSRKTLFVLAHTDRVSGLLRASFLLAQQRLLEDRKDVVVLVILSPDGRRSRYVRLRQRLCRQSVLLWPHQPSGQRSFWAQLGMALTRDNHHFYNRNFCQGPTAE

Homo sapiens = species on record: Homo sapiens; experiment: Metabolic stability in human assessed per mg protein; type: ADME
HEK293 = experiment: Selectivity ratio of IC50 for human TLR7 transfected in HEK293 cells to IC50 for human TLR9 transfected in HEK293 cells; type: cell-based
[1] = Aqueous solubility of the compound at pH 7.4; type: physicochemical
Mus musculus [2] = experiment: Inhibition of IL-6 production in iv dosed C57BL/6 mouse plasma compound administered 1 hr prior to CpG1826 treatment measured after 2 hrs by ELISA; type: functional; settings: C57BL/6, Plasma
Splenocyte = experiment: Inhibition of CpG-induced IL-6 production in C57BL/6 mouse splenocytes after 24 hrs by ELISA; type: functional, cell-based; settings: C57BL/6, Splenocyte
Toll-like receptor 7 = target: T2, Toll-like receptor 7 (Homo sapiens, UniProt Q9NYK1); experiment: Antagonist activity at human TLR7 transfected in HEK293 cells assessed as hydrolysis of pNPP after 24 hrs by SEAP reporter assay; type: cell-based
T2 sequence (Q9NYK1 whole entry): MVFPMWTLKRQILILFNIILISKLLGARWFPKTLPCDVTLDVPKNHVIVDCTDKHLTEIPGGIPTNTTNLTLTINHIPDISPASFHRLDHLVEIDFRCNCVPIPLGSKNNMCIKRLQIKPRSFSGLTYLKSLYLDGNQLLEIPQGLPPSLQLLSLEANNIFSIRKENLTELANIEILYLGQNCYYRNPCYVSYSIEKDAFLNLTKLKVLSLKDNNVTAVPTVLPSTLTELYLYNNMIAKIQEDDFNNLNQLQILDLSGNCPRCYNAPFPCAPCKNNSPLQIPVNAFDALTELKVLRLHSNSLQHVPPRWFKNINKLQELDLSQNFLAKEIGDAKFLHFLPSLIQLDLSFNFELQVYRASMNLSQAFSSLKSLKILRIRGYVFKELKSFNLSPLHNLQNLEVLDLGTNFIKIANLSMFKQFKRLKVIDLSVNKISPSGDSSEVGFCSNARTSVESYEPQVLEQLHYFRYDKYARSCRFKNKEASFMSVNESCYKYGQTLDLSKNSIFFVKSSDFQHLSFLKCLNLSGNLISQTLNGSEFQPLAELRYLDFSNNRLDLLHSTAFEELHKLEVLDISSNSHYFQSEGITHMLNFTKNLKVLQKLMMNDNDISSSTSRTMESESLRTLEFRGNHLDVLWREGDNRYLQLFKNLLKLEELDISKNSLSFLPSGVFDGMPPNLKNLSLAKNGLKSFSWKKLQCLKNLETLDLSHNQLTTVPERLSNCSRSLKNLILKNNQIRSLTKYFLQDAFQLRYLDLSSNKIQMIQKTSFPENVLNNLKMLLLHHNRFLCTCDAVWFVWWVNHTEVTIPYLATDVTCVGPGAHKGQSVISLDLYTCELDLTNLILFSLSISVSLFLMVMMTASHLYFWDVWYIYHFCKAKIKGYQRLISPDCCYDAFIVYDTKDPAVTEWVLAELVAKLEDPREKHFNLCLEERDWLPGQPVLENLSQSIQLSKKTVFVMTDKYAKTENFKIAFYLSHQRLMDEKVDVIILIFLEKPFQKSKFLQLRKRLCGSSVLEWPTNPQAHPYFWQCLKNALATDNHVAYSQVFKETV

PBMC = experiment: Inhibition of CpG-induced IL-6 production in human PBMC after 24 hrs by ELISA; type: functional, cell-based
Mus musculus [3] = experiment: Inhibition of IL-6 production in iv dosed C57BL/6 mouse peritoneal lavage fluid compound administered 1 hr prior to CpG1826 treatment measured after 2 hrs by ELISA; type: functional, organism-based
Toll-like receptor 8 = target: T3, Toll-like receptor 8 (Homo sapiens, UniProt Q9NR97); experiment: Antagonist activity at human TLR8 transfected in HEK293 cells after 6 hrs by NF-kappaB luciferase reporter assay; type: cell-based
T3 sequence (Q9NR97 whole entry): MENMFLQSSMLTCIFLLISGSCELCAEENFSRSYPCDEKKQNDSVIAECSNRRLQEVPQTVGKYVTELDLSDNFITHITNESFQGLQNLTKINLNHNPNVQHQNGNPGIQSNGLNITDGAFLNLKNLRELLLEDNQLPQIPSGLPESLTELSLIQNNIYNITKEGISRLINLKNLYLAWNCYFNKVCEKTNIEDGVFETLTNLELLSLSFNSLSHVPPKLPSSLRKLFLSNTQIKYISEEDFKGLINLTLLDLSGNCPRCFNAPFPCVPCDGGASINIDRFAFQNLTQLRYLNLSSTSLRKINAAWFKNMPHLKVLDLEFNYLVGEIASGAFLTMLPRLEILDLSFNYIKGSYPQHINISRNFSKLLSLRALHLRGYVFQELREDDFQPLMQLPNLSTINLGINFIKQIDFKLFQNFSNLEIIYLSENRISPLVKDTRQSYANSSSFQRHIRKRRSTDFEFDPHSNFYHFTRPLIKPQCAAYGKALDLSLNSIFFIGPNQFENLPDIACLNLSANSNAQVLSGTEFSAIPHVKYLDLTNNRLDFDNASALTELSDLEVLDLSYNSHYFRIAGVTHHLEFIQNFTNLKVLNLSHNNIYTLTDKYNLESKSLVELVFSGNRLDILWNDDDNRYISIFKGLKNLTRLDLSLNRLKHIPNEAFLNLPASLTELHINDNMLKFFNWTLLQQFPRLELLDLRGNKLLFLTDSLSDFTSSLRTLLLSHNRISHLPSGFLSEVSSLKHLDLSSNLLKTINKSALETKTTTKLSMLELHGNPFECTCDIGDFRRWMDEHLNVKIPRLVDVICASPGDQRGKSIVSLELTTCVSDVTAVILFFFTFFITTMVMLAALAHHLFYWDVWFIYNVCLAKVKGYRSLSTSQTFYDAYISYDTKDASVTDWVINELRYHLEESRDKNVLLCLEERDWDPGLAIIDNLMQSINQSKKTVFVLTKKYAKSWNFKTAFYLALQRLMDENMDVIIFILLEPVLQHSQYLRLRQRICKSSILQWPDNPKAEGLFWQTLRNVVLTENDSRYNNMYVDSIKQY

Work on CN1CCN(c2ccc(-c3nc(N(C)C)c4c(n3)N(CCCN3CCCC3)CC4)cc2)CC1 yielded an IC50 (Toll-like receptor 9) of 73 nM.

For CN1CCN(c2ccc(-c3ncc4c(n3)N(CCCN3CCCC3)CC4)cc2)CC1, the IC50 (Toll-like receptor 9) was 3.9 nM and the Stability (Homo sapiens) was 71 µL/min/mg.

For Cc1nc(-c2ccc(N3CCN(C)CC3)cc2)nc2c1CCN2CCCN1CCOCC1, the IC50 (Toll-like receptor 9) was 16 nM and the Stability (Homo sapiens) was < 10 µL/min/mg.

For CN1CCN(c2ccc(-c3ncc4c(n3)N(CCCN3CCOCC3)CC4)cc2)C(=O)C1, the IC50 (Toll-like receptor 9) was > 1000 nM.

CN1CCN(c2ccc(-c3nc(Cl)c4c(n3)N(CCCN3CCCC3)CC4)cc2)CC1 gave an IC50 (Toll-like receptor 9) of 84 nM.

For CN1CCN(c2ccc(-c3ncc4c(n3)N(CCCN3CCOCC3)CC4)cc2)CC1, the Ratio IC50 (HEK293) was > 50, the IC50 (Toll-like receptor 9) was 8.6 nM and the solubility [1] was 1100 µg/mL (≈ 2600 µM).

CN1CCN(c2ccc(-c3ncc4c(n3)N(CCCCN3CCOCC3)CC4)cc2)CC1 gave an IC50 (Toll-like receptor 9) of 11 nM.

In the case of CN1CCN(c2ccc(-c3ncc4c(n3)N(CCN3CCOCC3)CC4)cc2)CC1, the IC50 (Toll-like receptor 9) is reported as 73 nM.

For CN1CCN(c2ccc(-c3nccc(NCCN4CCOCC4)n3)cc2)CC1, the IC50 (Toll-like receptor 9) was 190 nM.

CN1CCN(c2cccc(-c3ncc4c(n3)N(CCCN3CCOCC3)CC4)c2)CC1 gave an IC50 (Toll-like receptor 9) of 56 nM.

Molecule CN1CCN(c2ccc(-c3nc4c(c(NCCN5CCOCC5)n3)CCCC4)cc2)CC1 has a Ratio IC50 (HEK293) of 71 and an IC50 (Toll-like receptor 9) of 27 nM.

In the case of Cc1nc(-c2ccc(N3CCN(C)CC3)cc2)nc2c1CCN2CCN1CCCC1, the IC50 (Toll-like receptor 9) is reported as 11 nM.

In the case of CN1CCN(c2ccccc2-c2ncc3c(n2)N(CCCN2CCOCC2)CC3)CC1, the IC50 (Toll-like receptor 9) is reported as 56 nM.

Cc1nc(-c2ccc(N3CCN(C)CC3)cc2)nc(NCCN2CCOCC2)c1C showed an IC50 (Toll-like receptor 9) of 35 nM and a Stability (Homo sapiens) of 69 µL/min/mg.

Molecule CN1CCN(c2ccc(-c3nc4c(c(NCCN5CCOCC5)n3)COCC4)cc2)CC1 has an IC50 (Toll-like receptor 9) of 190 nM.

For Cc1nc(-c2ccc(N3CCN(C)CC3)cc2)nc2c1CCN2CCN1CCOCC1, the Ratio IC50 (HEK293) was 93, the IC50 (Toll-like receptor 9) was 20 nM and the Stability (Homo sapiens) was < 10 µL/min/mg.

For COc1cc2nc(-c3ccc(N4CCN(C)CC4)cc3)nc(NCCN3CCOCC3)c2cc1OC, the IC50 (Toll-like receptor 9) was 4.6 nM and the solubility [1] was 120 µg/mL (≈ 244 µM).

Cc1cnc(-c2ccc(N3CCN(C)CC3)cc2)nc1NCCN1CCOCC1 gave an IC50 (Toll-like receptor 9) of 120 nM.

Work on COc1nc(-c2ccc(N3CCN(C)CC3)cc2)nc2c1CCN2CCCN1CCCC1 yielded an IC50 (Toll-like receptor 9) of 120 nM.

In the case of COCCN1CCN(c2ccc(-c3ncc4c(n3)N(CCCN3CCOCC3)CC4)cc2)CC1, the IC50 (Toll-like receptor 9) is reported as 28 nM.

OCCN1CCN(c2ccc(-c3ncc4c(n3)N(CCCN3CCOCC3)CC4)cc2)CC1 showed a Ratio IC50 (HEK293) of 75, an ED50 (Mus musculus [2]) of 0.8 mg/kg and an IC50 (Splenocyte) of 74 nM. For the same molecule, the IC50 (Toll-like receptor 7) was 970 nM, the IC50 (PBMC) was 244 nM and the IC50 (Toll-like receptor 9) was 13 nM. For the same molecule, the solubility [1] was > 10000 µg/mL, the inhibition (Mus musculus [3]) was “Dose-dependent effect” and the IC50 (Toll-like receptor 8) was > 10000 nM.

Cc1nc(-c2ccc(N3CCN(C)CC3)cc2)nc2c1CCN2CCCN1CCCC1 showed an IC50 (Toll-like receptor 9) of 3.5 nM and a Stability (Homo sapiens) of 35 µL/min/mg.

From ChEMBL document CHEMBL3351379, “Dihydropyrrolo[2,3-d]pyrimidines: Selective Toll-Like Receptor 9 Antagonists from Scaffold Morphing Efforts” (ACS Med Chem Lett, 2014)
